Source: patent publication EP3771487A1, “METHOD FOR THE SIMULTANEOUS DETERMINATION OF VARIOUS ANALYTES IN AN ENVIRONMENTAL SAMPLE AND / OR AN AGRICULTURAL RAW MATERIAL BASED ON CORE-SHELL MICROPARTICLES” (Bundesrepublik Deutschland, vertreten durch den …, priority 2019, dated 2021)

Tests used:
anti-CBZ mAb [1] = test: SAFIA (indirect competitive particle-based suspension array fluorescence immunoassay), CBZ channel; type: binding, Maus; settings: for Molare Kreuzreaktivität CBZ (SAFIA): method of Abraham, anti-CBZ antibody
Protocol: (§1) Indirekt kompetitiver partikelbasierter Immunoassay: Alle Immunoassays wurden in schwarzen, nicht-bindenden Mikrotiterplatten mit flachem Boden (Greiner Bio-One) durchgeführt. Zum Verdünnen der Suspension der Mikropartikel (Beads) und der biochemischen Reagenzien wurde TRIS-gepufferte Salzlösung (10 mM Tris (hydroxymethyl)aminomethan, 150mM NaCl, pH = 8,5) verwendet. Zunächst wurden 50 µL der Probe oder des Standards und 50 µl einer Mischung der primären (prim.) Antikörper anti-CAF (272 µg/L), anti-CBZ (350 µg/L), anti-DCF (20 µg/L), anti-OTA (50 ng/L), anti-ZON (250µg/L) und anti-ILA (Verdünnung des (polyklonalen) Antiserums: 1:10.000) während 5 Minuten auf einem Kreisschüttler (Titra-max 101, Heidolph) bei 750 U/min geschüttelt. Zur Kalibrierung wurde eine 8-Punkt Verdünnungsserie eines Mischstandards jedes Analyten umfassend Konzentrationen von 10.000 µg/L bis 1 ng/L verwendet, der durch serielle Verdünnung einer methanolischen Stammlösung von 1 mg/mL jedes einzelnen Analyten mit ultrareinem Wasser hergestellt worden war. Danach wurden 20 µL einer Mischung der fluoreszenzkodierten, Hapten-gekoppelten Mikropartikel (Mikropartikel) zugesetzt und für weitere 5 min geschüttelt. Um ein Messsignal der gebundenen Antikörper zu erhalten, wurden 100 µL Alexa Fluor™488 Ziege anti-mouse (und anti-Kaninchen) IgG(H+L), je 2 µg/mL Antikörper (dye 2 red-kodierte Partikel), oder Alexa Fluor™647 Ziege anti-Maus (und anti-Kaninchen) IgG(H+L), je 2 µg/ml Antikörper (dye 1 green kodierte Partikel) den Kern/Schale-Partikeln zugesetzt und für 15 min inkubiert.
(§2) Abschließend wurden, um den Assay zu stoppen, 100 µL einer 6%-igen Formaldehyd-Lösung (aus 37% HCHO/10-15% MeOH Stammlösung, (w/w)), 2% MeOH und 0.01% SDS in PBS zugesetzt und für mindestens 10 min inkubiert. Die Mischung jedes Kavität wurde in einem BD Accuri C6 oder BD AccuriC6 plus Durchflusszytometer bei einer Flussrate von 66 µL/min während 30 s analysiert, wobei ein Schwellwert von 80.000 a.u. am FSC Detektor und ein Probeninjektionsport (SIP)- Reinigungszyklus zwischen den einzelnen Durchläufen eingeschoben wurde, um ein Verschleppen (Übertrag) zu verhindern. Standards und Proben wurden zufällig über die Mikrotiterplatte verteilt angeordnet, um einen Einfluss von Signaldrift und Randeffekte möglichst auszuschließen. Zum Testen der Bindungs-Selektivität wurde jeder Antikörper separat mit jedem haptenmodifizierten (d.h. Haptengekoppeltem) Set der verwendeten Kern/Schale-Mikropartikel inkubiert. Die hier als Fixierlösung verwendete Lösung umfasst bevorzugt Formaldehyd im Konzentrationsbereich 1-10 % vol/vol), Methanol (1-10 % vol/vol) und Natriumdodecylsulfat (0,001-10 % m/m). Statt Formaldehyd können auch andere Aldehyde mit quervernetzenden Eigenschaften (z.B. Glyoxal, Glutarladehyd, Malondialdehyd, Dipalaldehyd) eingesetzt werden. Statt Natriumdodecylsulfat können andere Detergenzien (z.B. Tween20, TitronX, Genapol, CTAB) verwendet werden.
(§3) Datenbehandlung: Alle zytometrischen Daten wurden zunächst nach Streuwerten gegated (FSC/SSC (gate "size": vgl. Fig. 2E) um Partikelaggregate von der Berechnung auszuschließen. Danach wurden vier Gates am FSC/FL-4 (dye 2 red kodierte Partikel, Fig. 2F) oder FSC/FL-1 (dye 1 green kodierte Partikel) verwendet, um die Partikel zu dekodieren und die Analyt-bezogene mittlere Fuoreszenzintensität zu berechnen (vgl. Fig. 2G). Mittelwerte und Standardabweichungen von Wiederholungsmessungen wurden gegen die Konzentration der entsprechenden Analyte auf einer logarithmischen Skale abgetragen. Die von Rodbard eingeführte (Rodbard, D. Biometrics 1975, 31, 599-600) Vier-Parameter-Eichkurve wurde nach der Methode der kleinsten Fehlerquadrate mittels Origin® ver. 9 Grafik-Software gefittet. Ausreißer wurden mittels Grubbs Test bei einem SignifikanzNiveau α = 0,05 identifiziert und eliminiert. Welch's t-Test wurde mit einem Signifikanzniveau von α = 0,05 unter Zuhilfenahme von Origin® 9 verwendet. […]

[2] = system: anti-CAF Antikörper (mAb); test: SAFIA (indirect competitive particle-based suspension array fluorescence immunoassay), CAF channel; type: binding, Maus; settings: for Molare Kreuzreaktivität CAF (SAFIA): method of Abraham, anti-CAF antibody
Protocol: as §1, §2, §3

anti-DCF mAb [3] = test: SAFIA (indirect competitive particle-based suspension array fluorescence immunoassay), DCF channel; type: binding, Maus; settings: for Molare Kreuzreaktivität DCF (SAFIA): method of Abraham, anti-DCF antibody
Protocol: as §1, §2, §3

anti-ILA Antiserum [4] = test: SAFIA (indirect competitive particle-based suspension array fluorescence immunoassay), ILA channel; type: binding, Kaninchen; settings: for Molare Kreuzreaktivität ILA (SAFIA): method of Abraham, anti-ILA antiserum
Protocol: as §1, §2, §3

anti-CBZ mAb [5] = settings: anti-CBZ antibody; cited from earlier work
anti-DCF mAb [6] = settings: anti-DCF antibody; cited from earlier work
[7] = system: anti-CAF Antikörper (mAb); settings: anti-CAF antibody; cited from earlier work
anti-ILA Antiserum [8] = settings: cited from earlier work
[9] = calibration curve, dye 2 red coded particles, Alexa Fluor™488 secondary antibody

| IC50 "Dye 2 Red" (anti-DCF mAb [3]; [9]) | Compound | Molare Kreuzreaktivität CBZ (SAFIA) (anti-CBZ mAb [1]) | Molare Kreuzreaktivität CAF (SAFIA) [2] | Molare Kreuzreaktivität DCF (SAFIA) (anti-DCF mAb [3]) | Molare Kreuzreaktivität ILA (SAFIA) (anti-ILA Antiserum [4]) | Molare Kreuzreaktivität CBZ (ELISA) (anti-CBZ mAb [5]) | Molare Kreuzreaktivität DCF (ELISA) (anti-DCF mAb [6]) [%] | Molare Kreuzreaktivität CBZ (SAFIA) (anti-CBZ mAb [1]; listed as Carbamazepin-10,1-L-epoxid) [%] | IC50 "Dye 2 Red" [2, 9] | Molare Kreuzreaktivität CAF (ELISA) [7] | IC50 "Dye 2 Red" (anti-CBZ mAb [1]; [9]) | Molare Kreuzreaktivität ILA (ELISA) (anti-ILA Antiserum [8]) | IC50 "Dye 2 Red" (anti-ILA Antiserum [4]; [9]) |
| --- | --- | --- | --- | --- | --- | --- | --- | --- | --- | --- | --- | --- | --- |
| – | NC(=O)N1c2ccccc2C=Cc2ccc(O)cc21 [3-Hydroxycarbamazepin] | 20,2% | <0,1% | <0,1% | < 0,1% | 5,1% | – | – | – | – | – | – | – |
| – | O=C(O)Cc1ccccc1Nc1c(Cl)cc(O)cc1Cl [4'-Hydroxydiclofenac] | <0,1% | <0,1% | <0,1% | <0,1% | – | 11 | – | – | – | – | – | – |
| – | O=C(O)Cc1cc(O)ccc1Nc1c(Cl)cccc1Cl [5'-Hydroxydiclofenac] | <0,1% | <0,1% | 9,8% | <0,1% | – | 13 | – | – | – | – | – | – |
| – | NC(=O)N1c2ccccc2C(O)C(O)c2ccccc21 (centres unmarked) [10,11-Dihydroxy-carbamazepin] | 0,3% | <0,1% | < 0,1% | – | 0,1% | – | – | – | – | – | – | – |
| – | NC(=O)N1c2ccccc2C2OC2c2ccccc21 (centres unmarked) [10,11-Epoxycarbamazepin] | 117% | <0,1% | <0,1% | < 0,1% | 140% | – | 118 | – | – | – | – | – |
| – | O=C(O)COC(=O)Cc1ccccc1Nc1c(Cl)cccc1Cl [Aceclofenac] | <0,1% | <0,1% | 16,6% | <0,1% | – | – | – | – | – | – | – | – |
| – | Cn1c(=O)c2c(ncn2C)n(C)c1=O [CAF, Coffein] | <0,1% | 100% | <0,1% | < 0,1% | – | – | – | 1,72 ± 0,16 µg/L | 100% | – | – | – |
| – | NC(=O)N1c2ccccc2C=Cc2ccccc21 [CBZ, Carbamazepin] | 100% | <0,1% | <0,1% | < 0,1% | 100% | – | – | – | – | 1,13 ± 0,07 µg/L | – | – |
| – | C[C@H](CCC(=O)O)[C@H]1CC[C@H]2[C@@H]3[C@H](O)C[C@@H]4C[C@H](O)CC[C@]4(C)[C@H]3C[C@H](O)[C@]12C [Cholsäure] | <0,1% | <0,1% | <0,1% | <0,1% | – | – | – | – | – | – | <0,1% | – |
| 0,05 ± 0,02 µg/L | O=C(O)Cc1ccccc1Nc1c(Cl)cccc1Cl [DCF, Diclofenac] | <0,1% | <0,1% | 100% | < 0,1% | – | 100 | – | – | – | – | – | – |
| – | C[C@H](CCC(=O)O)[C@H]1CC[C@H]2[C@@H]3CC[C@@H]4C[C@@H](O)CC[C@]4(C)[C@H]3CC[C@]12C [ILA, Isolithocholsäure] | <0,1% | <0,1% | <0,1% | 100% | – | – | – | – | – | – | 100% | 1,39 ± 0,72 µg/L |
| – | C[C@H](CCC(=O)O)[C@H]1CC[C@H]2[C@@H]3CC[C@@H]4C[C@H](O)CC[C@]4(C)[C@H]3CC[C@]12C [Lithocholsäure] | <0,1% | <0,1% | <0,1% | 1,9% | – | – | – | – | – | – | 0,3% | – |
| – | Cn1c(=O)[nH]c2ncn(C)c2c1=O [Paraxanthin] | <0,1% | <0,1% | <0,1% | <0,1% | – | – | – | – | <0,1% | – | – | – |
| – | C[C@H](CCC(=O)NCCS(=O)(=O)O)[C@H]1CC[C@H]2[C@@H]3CC[C@@H]4C[C@H](O)CC[C@]4(C)[C@H]3CC[C@]12C [Taurolithocholsäure] | <0,1% | <0,1% | <0,1% | <0,1% | – | – | – | – | – | – | 1,2% | – |
| – | Cn1cnc2c1c(=O)[nH]c(=O)n2C [Theobromin] | <0,1% | 2,0% | <0,1% | <0,1% | – | – | – | – | 0,13% | – | – | – |
| – | Cn1c(=O)c2[nH]cnc2n(C)c1=O [Theophyllin] | <0,1% | 5,8% | <0,1% | <0,1% | – | – | – | – | 12,0% | – | – | – |
